Test results: PubChem BioAssay (NCI)
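Exposure lasted 48 hours, with cells grown in 96-well plates and compounds tested at five concentrations. TGI: concentration producing complete growth inhibition.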

Assays:
Assay in all cases: NCI-60 cell line screen, 48 h
[1] = tested on: M19-MEL melanoma
[2] = tested on: SK-MEL-5 melanoma
[3] = tested on: HL-60(TB) leukemia
[4] = tested on: SNB-78 CNS
[5] = tested on: HOP-62 NSCLC
[6] = tested on: HOP-92 NSCLC
[7] = tested on: NCI-H522 lung
[8] = tested on: DMS 114 small cell lung
[9] = tested on: SK-MEL-2 melanoma
[10] = tested on: NCI-H460 lung
[11] = tested on: OVCAR-4 ovarian
[12] = tested on: DMS 273 small cell lung
[13] = tested on: NCI-H23 lung
[14] = tested on: RXF 393 renal
[15] = tested on: SNB-19 CNS
[16] = tested on: SW-620 colon
[17] = tested on: KM20L2 colon
[18] = tested on: 786-0 renal
[19] = tested on: UO-31 renal
[20] = tested on: U251 CNS
[21] = tested on: SNB-75 CNS
[22] = tested on: TK-10 renal
[23] = tested on: HOP-18 NSCLC
[24] = tested on: LXFL 529 NSCLC
[25] = tested on: LOX IMVI melanoma
[26] = tested on: OVCAR-3 ovarian
[27] = tested on: RPMI-8226 leukemia
[28] = tested on: MOLT-4 leukemia
[29] = tested on: HT29 colon
[30] = tested on: MALME-3M melanoma
[31] = tested on: OVCAR-5 ovarian
[32] = tested on: COLO 205 colon
[33] = tested on: A549 NSCLC
[34] = tested on: HCT-116 colon
[35] = tested on: OVCAR-8 ovarian
[36] = tested on: ACHN renal
[37] = tested on: SF-539 CNS
[38] = tested on: K-562 leukemia
[39] = tested on: SN12C renal
[40] = tested on: EKVX NSCLC
[41] = tested on: KM12 colon
[42] = tested on: UACC-62 melanoma
[43] = tested on: SF-268 CNS
[44] = tested on: DLD-1 colon
[45] = tested on: SK-MEL-28 melanoma
[46] = tested on: UACC-257 melanoma
[47] = tested on: A498 renal
[48] = tested on: SR leukemia
[49] = tested on: SF-295 CNS
[50] = tested on: SK-OV-3 ovarian
[51] = tested on: M14 melanoma
[52] = tested on: CAKI-1 renal
[53] = tested on: HCC-2998 colon
[54] = tested on: HCT-15 colon
[55] = tested on: CCRF-CEM leukemia
[56] = tested on: IGROV1 ovarian

Measured: TGI

CC1CCC2(OC1)OC1CC3C4CCC5CC(O)CCC5(C)C4CC(=O)OC3(C)C1C2C (stereo unspecified)
> 100 µM: all assays above
